The values that follow come from patent US9278915B2, “Agonists of GPR40” (CONNEXIOS LIFE SCIENCES PVT LTD, priority 2010, dated 2016).

pEC50: −log10 of the molar value.

Broadly, the pEC50 is the EC50 on a negative log10 scale, so that one unit is a factor of ten.

The test deals with T1, hGPR40 (Homo sapiens, UniProt O14842).
T1 construct: expressed in transfected cells
T1 sequence (O14842 whole entry): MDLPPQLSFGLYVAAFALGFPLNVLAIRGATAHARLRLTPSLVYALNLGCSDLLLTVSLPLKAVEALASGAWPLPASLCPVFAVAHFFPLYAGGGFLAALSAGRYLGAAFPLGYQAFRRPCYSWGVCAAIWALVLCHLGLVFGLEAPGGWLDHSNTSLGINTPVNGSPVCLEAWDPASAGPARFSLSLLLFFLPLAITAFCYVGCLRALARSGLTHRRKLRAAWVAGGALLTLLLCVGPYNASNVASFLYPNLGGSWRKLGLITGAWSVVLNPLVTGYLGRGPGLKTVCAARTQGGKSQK
The test is described as follows: Calcium flux assay to detect GPR40 activation. Type of test: cell-based. To be noted: CHO-K cells stably expressing hGPR40; Fluo-4 NW; read for 4 min at 5 s intervals. The protocol:
Biological Activity Calium Flux Assay to Detect GPR40 Activation: CHO-K cells stably expressing hGPR40 were selected in a media containing Neomycin/G418. The cells were plated at a concentration of 20,000 cells per well in black 96-well clear bottom tissue culture treated plates. The cells were cultured for 24 h at 37° C. in a humidified 5% CO2 air environment to allow for protein expression. The next day, after removal of media from wells, Fluo-4 NW (Invitrogen) is added at 100 ul/well and the cells were incubated for 30 min at 37° C. and for a further 30 min at RT. All test compounds were diluted to appropriate concentrations in HEPES buffer. Compounds were added to the cells and the wells were read in the BioTEK synergy reader and readings were taken for 4 min with an interval of 5 s.
On to `CON=C(COc1ccc(COc2ccc(C(C#N)CC(=O)O)cc2)cc1)c1ccc(C#N)cc1` (mixture of isomers) [Compound 49, Sodium 3-cyano-3-{4-[(4-{[(2E,2Z)-2-(4-cyanophenyl)-2-(methoxyimino)ethyl]oxy}benzyl)oxy]phenyl}propanoate], for which the pEC50 is more than 8.00.

With `CO/N=C(\COc1cccc(CNc2ccc(CCC(=O)O)cc2)c1)c1ccccc1` [Compound 5], the pEC50 is less than 7.00.

Turning to `CO/N=C(\COc1ccc(CNc2ccc([C@@H]3C[C@H]3C(=O)O)cc2)cc1)c1ccccc1C` [Compound 15, (1R,2R)-2-{4-[(4-{[(2Z)-2-(Methoxyimino)-2-(2-methylphenyl)ethyl]oxy}benzyl)amino]phenyl}cyclopropanecarboxylic acid], the pEC50 is 7.00 to 8.00.

`CO/N=C(\COc1ccc(COc2ccc(CCC(=O)O)c(OCC3CC3)c2)cc1)c1ccccc1` [Compound 58, 3-{2-(Cyclopropylmethoxy)-4-[(4-{[(2Z)-2-(methoxyimino)-2-phenylethyl]oxy}benzyl)oxy]phenyl}propanoic acid]: the pEC50 was less than 7.00.

With `CON=C(COCC1CCC(COc2ccc(CCC(=O)O)cc2)CC1)c1ccccc1` (stereo not shown) [Compound 113, 3-(4-{[4-({[(2E,2Z)-2-(Methoxyimino)-2-phenylethyl]oxy}methyl)cyclohexyl]methoxy}phenyl)propanoicacid], the pEC50 is less than 7.00.

As for `CO/N=C(\COc1ccc(COc2ccc(C(CC(=O)O)c3ccon3)cc2)cc1)c1ccccc1` (stereo not shown) [Compound 29, Sodium 3-{4-[(4-{[(2Z)-2-(methoxyimino)-2-phenylethyl]oxy}benzyl)oxy]phenyl}-3-(1,2-oxazol-3-yl)propanoate], the pEC50 was more than 8.00.

In the case of `CO/N=C(/COc1ccc(COc2ccc(C(C#N)CC(=O)O)cc2)cc1)c1ccc(C#N)cc1` (racemic) [Compound 33, 3-Cyano-3-{4-[(4-{[(2E,2Z)-2-(4-cyanophenyl)-2-(methoxyimino)ethyl]oxy}benzyl)oxy]phenyl}propanoic acid], the pEC50 is more than 8.00.

`CO/N=C(\COc1ccc(COc2ccc(/C(CC(=O)O)=N\OC3CCCCC3)cc2)cc1)c1ccccc1` [Compound 124, (3E,3Z)-3-[(Cyclohexyloxy)imino]-3-{4-[(4-{[(2Z)-2-(methoxyimino)-2-phenylethyl]oxy}benzyl)oxy]phenyl}propanoic acid]: the pEC50 is less than 7.00.

In the case of `CO/N=C(\COc1ccc(COc2ccc(C3CC3C(=O)O)cc2)cc1)c1ccc(OC)cc1` (stereo not shown) [Compound 57, Sodium 2-{4-[(4-{[(2Z)-2-(methoxyimino)-2-(4-methoxyphenyl)ethyl]oxy}benzyl)oxy]phenyl}cyclopropanecarboxylate], the negative logarithm of the EC50 (pEC50) was 7.00 to 8.00.

Regarding `CON=C(COc1ccc(CNc2ccc([C@@H]3C[C@H]3C(=O)O)cc2)cc1)c1ccccc1` (mixture of isomers) [Compound 14, (1R,2R)-2-{4-[(4-{[(2E,2Z)-2-(Methoxyimino)-2-phenylethyl]oxy}benzyl)amino]phenyl}cyclopropanecarboxylic acid], the pEC50 is 7.00 to 8.00.

Consider `CO/N=C(\COc1ccc(COc2ccc(/C=C/C(=O)O)c(OC)c2)cc1)c1ccccc1` [Compound 95, (2E,2Z)-3-{2-Methoxy-4-[(4-{[(2Z)-2-(methoxyimino)-2-phenylethyl]oxy}benzyl)oxy]phenyl}prop-2-enoic acid], for which the pEC50 is less than 7.00.

As for `CO/N=C(\COc1ccc(COc2ccc(CCC(=O)O)cc2)cc1)c1sc2c(c1C)C(C)(C)CCC2(C)C` [Compound 106, 3-{4-[(4-{[(2E)-2-(Methoxyimino)-2-(3,4,4,7,7-pentamethyl-4,5,6,7-tetrahydro-1-benzothiophen-2-yl)ethyl]oxy}benzyl)oxy]phenyl}propanoic acid], the pEC50 was less than 7.00.

Regarding `CO/N=C(\COc1ccc(COc2ccc(C3CC3C(=O)O)cc2)cc1)c1ccc(C#N)cc1` (single isomer, unassigned) [Compound 79, Sodium 2-{4-[(4-{[(2Z)-2-(4-cyanophenyl)-2-(methoxyimino)ethyl]oxy}benzyl)oxy]phenyl}cyclopropanecarboxylate], the pEC50 is less than 7.00.
